In US20230295260A1, “GLP RECEPTOR AGONISTS” (HEPTARES THERAPEUTICS LIMITED, priority 2020, published 2023):
pEC50: −log10 of the molar value. Entries after “also recorded” stand apart in the source; their conditions may differ. Non-standard residues stand in square brackets, D forms with d. Residues, ends and D or L forms follow the SMILES beside them. *: point of attachment. Malonyl(2,2-Me2,histaminyl) = CC(C)(C(=O)NCCc1cnc[nH]1)C(=O)*; Ala(1H-tetrazol-5-yl) = N[C@@H](Cc1nnn[nH]1)C(=O)O; αMePhe(2-F) = C[C@](N)(Cc1ccccc1F)C(=O)O; Nle = CCCC[C@H](N)C(=O)O; Alloc = C=CCOC(=O)*

Tests used:
mouse GLP1 receptor = biological target: T1, mouse GLP1 receptor (Mus musculus, UniProt O35659); test: cAMP accumulation assay (HTRF), functional agonism of mouse GLP1 receptor in HEK cells; assay type: cell-based; conditions: HEK cells transiently transfected, 45 min 37° C.
T1 construct: expressed in transfected cells; host or cells: HEK cells, transient transfection with GeneJuice
T1 sequence (O35659 22-463): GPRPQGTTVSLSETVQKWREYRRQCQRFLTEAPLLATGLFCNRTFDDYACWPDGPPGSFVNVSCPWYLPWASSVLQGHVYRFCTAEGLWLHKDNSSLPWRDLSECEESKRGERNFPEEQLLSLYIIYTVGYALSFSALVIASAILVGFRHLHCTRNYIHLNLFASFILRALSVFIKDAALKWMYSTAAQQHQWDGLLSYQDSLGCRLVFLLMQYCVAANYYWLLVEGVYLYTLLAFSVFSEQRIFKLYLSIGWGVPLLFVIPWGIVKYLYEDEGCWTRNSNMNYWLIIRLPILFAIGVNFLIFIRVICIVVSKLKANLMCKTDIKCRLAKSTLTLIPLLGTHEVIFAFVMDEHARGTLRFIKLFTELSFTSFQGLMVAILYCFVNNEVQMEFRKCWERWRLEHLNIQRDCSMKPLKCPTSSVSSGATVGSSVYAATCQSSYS

C57BL/6J male mice [1] = test: Effect on glucose tolerance (OGTT) in normal mice (FIG. 3); assay type: in vivo, mouse; conditions: mice fasted 6 h, 270 nmol/kg sc 1 hour before 2 g/kg oral glucose (liraglutide 200 ug/kg iv)
Description: One hour before glucose challenge, Example 1 or 3 (270 nmol/kg) or vehicle (0.1% Tween80 in PBS) was administered as a single subcutaneous injection. […] Serial blood glucose measurements were taken at baseline and at timepoints post oral glucose challenge. (A) Time course of blood glucose levels. N=6 animals / grp. Mean +/-SEM.
C57BL/6J male mice (Charles River, Italy, ~8w) are fasted for 6 hours on the day of testing with free access to drinking water. Prior to drug dosing, pre-dose blood glucose measurements are taken using a glucometer (ACCU-CHEK performa, Roche Diagnostic GmbH). Animals are dosed with either the vehicle (0.1% Tween80 in PBS) or compound (270 nmol/kg) via subcutaneous injection. […] 1 hour after dosing, mice are given 2 g/kg oral gavage of glucose and blood is sampled at defined time points for analysis of blood glucose levels. Timepoints of sampling: t=0 (prior to glucose dosing), 15 mins, 30 mins, 60 mins, 120 mins and 180 mins.

human GLP1 receptor = biological target: T2, human GLP1 receptor (Homo sapiens, UniProt P43220); test: cAMP accumulation assay (HTRF), functional agonism of human GLP1 receptor in HEK cells; assay type: cell-based; conditions: HEK cells, human GLP1 receptor BacMam, 45 min 37° C.
T2 construct: expressed in transfected cells; host or cells: HEK cells, BacMam virus transduction

human GLP2 receptor = biological target: T3, human GLP2 receptor (Homo sapiens, UniProt O95838); test: cAMP accumulation assay (HTRF), functional agonism of human GLP2 receptor in HEK cells;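 note: HEK cells transduced via BacMam to express human GLP2 receptor, agonist-stimulated cAMP measured by HTRF after 45 min at 37 °C in HBSS with 0.5 mM IBMX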
T3 sequence (O95838 1-553): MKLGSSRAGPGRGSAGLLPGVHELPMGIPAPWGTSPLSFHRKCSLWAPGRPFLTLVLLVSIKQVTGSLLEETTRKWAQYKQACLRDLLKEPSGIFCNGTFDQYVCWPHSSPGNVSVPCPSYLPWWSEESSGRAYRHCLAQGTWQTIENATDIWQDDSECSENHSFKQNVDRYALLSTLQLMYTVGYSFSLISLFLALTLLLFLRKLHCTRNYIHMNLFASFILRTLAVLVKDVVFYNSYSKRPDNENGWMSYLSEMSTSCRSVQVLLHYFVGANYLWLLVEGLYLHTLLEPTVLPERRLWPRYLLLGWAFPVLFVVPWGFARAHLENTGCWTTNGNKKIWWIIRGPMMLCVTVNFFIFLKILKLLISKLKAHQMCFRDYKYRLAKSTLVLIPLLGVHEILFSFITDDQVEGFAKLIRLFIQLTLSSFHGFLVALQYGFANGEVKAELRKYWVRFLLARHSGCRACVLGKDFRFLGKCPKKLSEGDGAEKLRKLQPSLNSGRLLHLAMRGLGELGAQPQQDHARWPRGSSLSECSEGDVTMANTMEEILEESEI
Description: The functional activity of the peptides were assessed using a HTRF cAMP assay. pEC50 values are quoted.
cAMP production upon agonist stimulation of human GLP2 or GLP1 receptor was assessed utilizing HiRange cAMP kit (Cisbio). In brief, HEK cells were infected with either human GLP2 or GLP1 receptor BacMam virus for 24 hours and frozen for later use in the assay. […] Cells were prepared in the assay buffer (HBSS (Lonza) supplemented with 0.5 mM IBMX (Tocris)). After 45 min incubation at 37° C., the reaction was stopped by addition of the HTRF detection reagents in the lysis buffer provided in the kit.

C57BL/6J male mice [2] = test: Dose response effect on intestinal mass in normal mice, 7 day dosing (FIG. 2); assay type: in vivo, mouse; conditions: daily sc
Description: The enhancement of the small bowel wet weight (over vehicle) is plotted as a function of the peptide dose. […] N=6 animals I grp.
C57BL/6J male mice (Charles River, Italy, ~8 weeks) are randomly allocated to the treatment group based on the baseline body weights. Animals are given free access to food and water during the whole duration of the study. Mice are dosed daily with the vehicle or test peptides via subcutaneous injection. On day 7, animals are sacrificed and segments from the upper small intestine (15 cm segment from the pylorus) are collected and weighed (see Example B).

C57BL/6J male mice [3] = test: Effect on intestinal wet weight in normal mice (FIG. 1); assay type: in vivo, mouse; conditions: once daily sc 270 nmol/kg (liraglutide iv 200 ug/kg), sacrificed on day 3, vs. vehicle
Description: Mice were sacrificed on day 3 and the wet weight of the small intestine was quantified. GLP-2 active peptides show significant enhancement of the small intestinal weight. […] N=6 animals / grp. *p < 0.05 vs. vehicle
C57BL/6J male mice (Charles River, Italy, ~8 weeks) are randomly allocated to the treatment group based on the baseline body weights. Animals are given free access to food and water during the whole duration of the study. Mice are dosed daily with the test compounds via subcutaneous injection. […] The abdominal cavity will be opened and the intestinal tissue is excised carefully to avoid perforation. Tissue from the upper small intestine (15 cm segment from the pylorus) is collected. The bowel is cleaned by flushing through with ice cold PBS to remove any feces.

mouse GLP2 receptor = biological target: T4, mouse GLP2 receptor (Mus musculus, UniProt Q5IXF8); test: cAMP accumulation assay (HTRF), functional agonism of mouse GLP2 receptor in HEK cells; assay type: cell-based; conditions: HEK cells transiently transfected, 45 min 37° C.
T4 construct: expressed in transfected cells; host or cells: HEK cells, transient transfection with GeneJuice
T4 sequence (Q5IXF8 1-512): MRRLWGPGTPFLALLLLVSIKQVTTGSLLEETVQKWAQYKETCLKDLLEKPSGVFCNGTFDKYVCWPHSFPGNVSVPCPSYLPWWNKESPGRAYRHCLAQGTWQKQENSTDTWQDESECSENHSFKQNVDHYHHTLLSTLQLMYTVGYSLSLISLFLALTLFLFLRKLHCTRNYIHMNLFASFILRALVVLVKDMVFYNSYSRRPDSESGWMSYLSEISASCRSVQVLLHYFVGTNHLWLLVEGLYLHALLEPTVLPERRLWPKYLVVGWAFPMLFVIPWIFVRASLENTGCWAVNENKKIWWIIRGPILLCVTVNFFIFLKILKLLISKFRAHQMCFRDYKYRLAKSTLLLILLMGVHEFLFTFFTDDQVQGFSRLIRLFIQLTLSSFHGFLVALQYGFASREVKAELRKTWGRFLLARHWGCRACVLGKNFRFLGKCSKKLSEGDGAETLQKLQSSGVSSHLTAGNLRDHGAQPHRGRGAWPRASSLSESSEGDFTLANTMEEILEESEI

T2 sequence (P43220 24-463): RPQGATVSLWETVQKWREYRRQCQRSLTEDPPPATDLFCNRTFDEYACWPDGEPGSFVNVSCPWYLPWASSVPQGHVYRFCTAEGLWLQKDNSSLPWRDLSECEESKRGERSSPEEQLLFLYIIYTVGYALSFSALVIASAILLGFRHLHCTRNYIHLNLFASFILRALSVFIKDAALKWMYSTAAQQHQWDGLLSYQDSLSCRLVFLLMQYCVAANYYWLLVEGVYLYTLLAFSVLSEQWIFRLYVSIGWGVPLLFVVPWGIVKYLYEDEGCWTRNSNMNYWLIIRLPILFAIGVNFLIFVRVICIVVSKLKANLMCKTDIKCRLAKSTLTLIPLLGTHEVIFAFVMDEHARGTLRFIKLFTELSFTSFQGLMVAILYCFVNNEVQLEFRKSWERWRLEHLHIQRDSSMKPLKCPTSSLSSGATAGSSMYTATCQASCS

C=CCOC(=O)NCCCC[C@H](NC(=O)[C@H](CC(C)C)NC(=O)[C@H](CC(=O)O)NC(=O)[C@H](CC(C)C)NC(=O)[C@@H](NC(=O)[C@@H](NC(=O)[C@@H](Cc1ccccc1)NC(=O)[C@H](CCCC)NC(=O)[C@H](CCC(=O)O)NC(=O)[C@H](CC(=O)O)NC(=O)[C@H](CO)NC(=O)[C@](C)(Cc1ccccc1F)NC(=O)[C@H](CO)NC(=O)CNC(=O)[C@H](Cc1nn[nH]n1)NC(=O)C(C)(C)C(=O)NCCc1c[nH]cn1)[C@@H](C)O)[C@@H](C)CC)C(=O)N[C@@H](C)C(=O)N[C@@H](C)C(=O)N[C@@H](CCCCN)C(=O)N[C@@H](CC(=O)O)C(=O)N[C@@H](Cc1ccccc1)C(=O)N[C@H](C(=O)N[C@@H](CC(N)=O)C(=O)N[C@@H](Cc1c[nH]c2ccccc12)C(=O)N[C@@H](CC(C)C)C(=O)N[C@H](C(=O)N[C@@H](CCC(N)=O)C(=O)N[C@H](C(=O)N[C@@H](CCCCN)C(=O)N[C@H](C(=O)N[C@H](C(=O)N[C@@H](CC(=O)O)C(N)=O)[C@@H](C)O)[C@@H](C)CC)[C@@H](C)O)[C@@H](C)CC)[C@@H](C)CC [Example 3] ({Malonyl(2,2-Me2,histaminyl)}-[Ala(1H-tetrazol-5-yl)]GS[αMePhe(2-F)]SDE[Nle][dF]TILDLK(Alloc)AAKDFINWLIQTKITD-NH2)
Emax (mouse GLP1 receptor; HEK293, read-out: Mouse GLP-1 R agonist cAMP Emax): 99.5% | EC50 (mouse GLP1 receptor; read-out: Mouse GLP-1 R agonist cAMP pEC50 (converted)): 0.398 nM | peak blood glucose concentration in OGTT (C57BL/6J male mice [1]): significantly reduced | Emax (human GLP1 receptor; HEK293, read-out: Human GLP-1R agonist cAMP Emax): 99.2% | EC50 (human GLP1 receptor; read-out: Human GLP-1R agonist cAMP pEC50 (converted)): 0.0794 nM | pEC50 (human GLP2 receptor): 10.80 | Emax (human GLP2 receptor; HEK293, read-out: Human GLP-2R agonist cAMP Emax): 102% | enhancement of small bowel wet weight (over vehicle) as a function of dose (C57BL/6J male mice [2]): greater maximal enhancements in small intestinal wet weight compared to Teduglutide; also recorded: dose dependent enhancements in the wet weight of the small intestine | wet weight of the small intestine (C57BL/6J male mice [3]): superior enhancements in intestinal weight compared to Teduglutide; also recorded: Significant enhancement of intestinal wet weight | Emax (mouse GLP2 receptor; HEK293, read-out: Mouse GLP-2R agonist cAMP Emax): 103% | EC50 (mouse GLP2 receptor; read-out: Mouse GLP-2R agonist cAMP pEC50 (converted)): 0.501 nM
